The target in series [1] is human MC4 receptor (Homo sapiens (Human), UniProt P32245). Kind of series: Human MC receptor activation, cAMP production in cells expressing human MC4 receptor. It is filed as cell-based. The settings on record: FreeStyle 293-F cells transiently expressing human MC4 receptor, α-MSH maximum = 100%. An excerpt:
(§1) (1) Construction of Human MC Receptor-Expressing Vector
(§2) A human MC4 receptor gene (GenBank Accession No.: NM_005912.2), a human MC1 receptor gene (GenBank Accession No.: NM_002386.3), or a human MC3 receptor gene (GenBank Accession No.: NM_019888.3) was introduced into an expression vector pcDNA™ 3.1/V5-His TOPO (registered trademark) (Thermo Fisher Scientific Inc.).
(§3) (2) Construction of Cells Transiently Expressing Human MC Receptor
(§4) An expression vector for a human MC4, MC1, or MC3 receptor was introduced into FreeStyle™ 293-F cell (Thermo Fisher Scientific Inc., product number: R790-07). For the introduction, electroporation was employed. That is, 1×10^7 FreeStyle™ 293-F cell were suspended in 80 μL of an electroporation buffer (Thermo Fisher Scientific Inc., product number: B201-100), and 20 μg of the expression vector was added thereto. The resultant was put into a cuvette (OC-100 Processing Assembly, MaxCyte, Inc.) and electroporated with MaxCyte SIX (registered trademark) (MaxCyte, Inc.). The cells were cultured over one day, suspended in a Cell Banker (registered trademark) 1 (JUJI FIELD Inc.), product number: BLC-1), and stored frozen until their use.
(§5) (3) Measurement of Amount of cAMP Produced
(§6) Measurement was carried out by using a LANCE (registered trademark) Ultra cAMP Kit (PerkinElmer, Inc.) in accordance with the attached instructions. That is, after dissolution in DMSO, the test compound (a final concentration of 1 pM to 30 μM) diluted with an assay buffer (Hank's balanced salt solution, 5 mM 4-(2-hydroxyethyl)-1-piperazineethanesulfonic acid (HEPES), 0.5 mM 3-isobutyl-1-methylxanthine (IBMX), 0.1% bovine serum albumin, pH 7.4), or α-MSH (Bachem Inc., a final concentration of 1 pM to 30 μM) was added to OptiPlate-384 (PerkinElmer, Inc.). Furthermore, a suspension of cells transiently expressing the human MC4, MC1, or MC3 receptor prepared by using the assay buffer was added thereto at 1,000 cells/well, followed by being left to stand at room temperature for about 1 hour. Thereafter, an Eu-cAMP tracer solution and an ULight™-anti-cAMP solution were added thereto, followed by being left to stand at room temperature for about 1 hour. The amount of cAMP was calculated using EnVision (registered trademark) (PerkinElmer Inc.).
(§7) For the agonistic activity, an efficacy (EC50 (μM)) was calculated by a non-linear regression method with a Sigmoid-Emax model, by defining the maximum reaction with α-MSH as 100% and the reaction with the vehicle alone as 0%, respectively.
For orientation: Changes in cAMP serve as a functional read-out for many G protein-coupled receptors.

Series [2] addresses human MC1 receptor (Homo sapiens (Human), UniProt Q01726). Kind of series: Human MC receptor activation, cAMP production in cells expressing human MC1 receptor. It is filed as cell-based. The settings on record: FreeStyle 293-F cells transiently expressing human MC1 receptor, α-MSH maximum = 100%.
Text: as §1, §2, §3, §4, §5, §6, §7

Series [3] concerns the target human MC3 receptor (Homo sapiens (Human), UniProt P41968). Kind of series: Human MC receptor activation, cAMP production in cells expressing human MC3 receptor. It is filed as cell-based. The settings on record: FreeStyle 293-F cells transiently expressing human MC3 receptor, α-MSH maximum = 100%.
Text: as §1, §2, §3, §4, §5, §6, §7

Series [4] relates to Male SD rats. Kind of series: Rat erection-inducing action. The conditions noted are these: 10 mg/kg intravenously, erections up to one hour after administration, vs vehicle, P<0.05. It is filed as in vivo. As to the method: Male SD rats (Charles River Laboratories Japan, Inc.) were used. A test compound (10 mg/kg) or the vehicle (20% dimethyl acetamide, 10% Cremophor (registered trademark), 70% physiological saline) was administered intravenously through the tail vein. After administration, the rats were transferred to transparent observation cages made of plastic to measure the erection times of up to one hour after administration. The measurements were carried out for five groups (3 to 7 animals per group): vehicle groups, Example compound groups (Ex 87, 88, and 89), and THIQ group, which had been known as an MC4 receptor agonist (J. Med. Chem., 45, 4589-4593 (2002)), as a positive control. For a statistical significance test, Dunnett's multiple comparison test was used for the comparison with vehicle control group, and it was determined whether there was an erection-inducing effect with a statistically significant difference (P<0.05).

Where a name gives a salt, the structure may show the parent alone.

human MC1 receptor, sequence (Q01726 whole entry): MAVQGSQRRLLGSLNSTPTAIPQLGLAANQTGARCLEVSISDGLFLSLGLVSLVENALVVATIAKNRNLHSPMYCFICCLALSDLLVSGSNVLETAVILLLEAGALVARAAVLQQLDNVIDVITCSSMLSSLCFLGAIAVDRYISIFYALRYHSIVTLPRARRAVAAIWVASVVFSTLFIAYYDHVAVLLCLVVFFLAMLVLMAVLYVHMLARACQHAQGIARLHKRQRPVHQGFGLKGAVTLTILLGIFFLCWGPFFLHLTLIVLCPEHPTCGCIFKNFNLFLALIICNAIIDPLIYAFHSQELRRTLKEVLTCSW
human MC3 receptor, sequence (P41968 whole entry): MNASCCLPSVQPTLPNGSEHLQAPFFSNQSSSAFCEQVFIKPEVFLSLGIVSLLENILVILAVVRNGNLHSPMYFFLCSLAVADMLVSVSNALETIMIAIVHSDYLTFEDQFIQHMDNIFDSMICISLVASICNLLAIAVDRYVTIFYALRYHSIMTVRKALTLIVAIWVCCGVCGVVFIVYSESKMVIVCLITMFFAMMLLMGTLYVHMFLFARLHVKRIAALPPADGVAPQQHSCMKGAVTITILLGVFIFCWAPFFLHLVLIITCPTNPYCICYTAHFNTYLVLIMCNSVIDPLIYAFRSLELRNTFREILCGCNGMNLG
human MC4 receptor, sequence (P32245 whole entry): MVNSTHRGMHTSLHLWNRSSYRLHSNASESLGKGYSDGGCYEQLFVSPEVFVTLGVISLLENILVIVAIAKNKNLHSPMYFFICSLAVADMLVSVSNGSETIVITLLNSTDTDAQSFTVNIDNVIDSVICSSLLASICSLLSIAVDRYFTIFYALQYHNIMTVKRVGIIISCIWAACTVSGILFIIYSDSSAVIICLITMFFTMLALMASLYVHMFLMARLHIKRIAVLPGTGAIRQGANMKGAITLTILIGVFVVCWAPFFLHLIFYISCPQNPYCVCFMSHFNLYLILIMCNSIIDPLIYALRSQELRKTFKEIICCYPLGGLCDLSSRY

Take `C[C@H]1CN([C@@H](Cc2ccc3c(c2)CCC3)C(=O)O)CCN1C(=O)C1CN(C(C)(C)C)CC1c1ccc2c(c1)CCC2` (stereo partly drawn) [Example 83]: in series [1], it took 0.19 µM to reach a half-maximal effect (EC50). In the case of `C[C@H]1CN([C@@H](Cc2ccc(OC(F)F)cc2)C(=O)O)CCN1C(=O)[C@@H]1CN(C(C)(C)C)C[C@H]1c1ccc(Cl)cc1F` [Example 72], the results for the EC50 in series [1], in series [2] and in series [3] were 0.04 µM, 2.1 µM and 5.3 µM, respectively.

For `C[C@H]1CN([C@@H](Cc2ccc(C3CC3)cc2F)C(=O)O)CCN1C(=O)[C@@H]1CN(C2CCOCC2)C[C@H]1c1ccc(Cl)cc1F` [Example 92], the EC50 (commonly the concentration that produces a half-maximal response) in series [1] came to 0.012 µM; in series [2] it was 1.7 µM; in series [3], 1.8 µM.

In series [1], `C[C@H]1CN([C@@H](Cc2c[nH]c3ccccc23)C(=O)O)CCN1C(=O)[C@@H]1CN(C(C)(C)C)C[C@H]1c1ccc(F)cc1F` [Example 53] registered an EC50 of 0.19 µM. Turning to `Cc1ccc([C@H](C)[C@@H](C(=O)O)N2CCN(C(=O)[C@@H]3CN(C4CCOCC4)C[C@H]3c3ccc(Cl)cc3F)[C@@H](C)C2)cc1` [Example 78], the EC50 in series [1] is 0.016 µM; in series [2], 1 µM; in series [3] it was 0.68 µM.

For the compound `C[C@H]1CN([C@@H](Cc2ccc(C(F)(F)F)cc2)C(=O)O)CCN1C(=O)[C@@H]1CN(C(C)(C)C)C[C@H]1c1ccc(F)cc1F` [Example 13], the EC50 was 0.048 µM in series [1] and 5 µM in series [3]. For the compound `CC(C)(C)N1C[C@@H](C(=O)N2CCN([C@@H](Cc3ccc4ccccc4c3)C(=O)O)CC23CC3)[C@H](c2ccc(F)cc2F)C1` [Example 17], the EC50 in series [1] worked out at 2.4 µM. For the compound `O=C(N[C@H](Cc1ccc(Cl)cc1)C(=O)N1CCC(Cn2cncn2)(C2CCCCC2)CC1)[C@H]1Cc2ccccc2CN1` [THIQ, reference compound], the erection-inducing effect result in series [4] is listed as “exhibited a significant erection-inducing effect”. `Cc1ccc(C[C@@](C)(C(=O)O)N2CCN(C(=O)[C@@H]3CN(C4CCOCC4)C[C@H]3c3ccc(F)cc3F)[C@@H](C)C2)c(F)c1` [Example 74]: the values for the EC50 in series [1], in series [2] and in series [3] were 0.03 µM, 1.4 µM and 1 µM, respectively.

On to `CN(C)CC[C@H]1CN([C@@H](Cc2ccc3ccccc3c2)C(=O)O)CCN1C(=O)[C@@H]1CN(c2ccc(=O)n(C)n2)C[C@H]1c1ccc(F)cc1F` [Example 24], for which the EC50 in series [1] was found to be 0.0032 µM; in series [2], 15 µM; in series [3], 0.58 µM.

`C[C@H]1CN([C@@H](Cc2ccc3c(c2)CCC3)C(=O)O)CCN1C(=O)[C@@H]1CN(C(C)(C)CO)C[C@H]1c1ccc(F)cc1F` [Example 28]: the 50% effective concentration (EC50) in series [1] is 0.15 µM; in series [2], 3.9 µM; in series [3], 10 µM. `C[C@H]1CN([C@@H](Cc2ccc3c(c2)CCC3)C(=O)O)CCN1C(=O)C1CN(C(C)(C)C)CC1c1ccc(Cl)s1` (stereo partly drawn) [Example 55] registered an EC50 in series [1] of 0.27 µM. In the case of `C[C@@H]1CN([C@@H](Cc2ccc3ccccc3c2)C(=O)O)C[C@H](C)N1C(=O)[C@@H]1CN(C(C)(C)C)C[C@H]1c1ccc(F)cc1F` [Example 6, (2S)-2-[(3R,5S)-4-{[(3S,4R)-1-tert-butyl-4-(2,4-difluorophenyl)pyrrolidin-3-yl]carbonyl}-3,5-dimethylpiperazin-1-yl]-3-(2-naphthyl)propanoic acid dihydrochloride], the EC50 was 0.48 µM in series [1], 6.4 µM in series [2] and > 30 µM in series [3]. Regarding `C[C@H]1CN([C@@H](Cc2ccc3c(c2)CCC3)C(=O)O)CCN1C(=O)[C@@H]1CN(c2ccc(C(F)(F)F)nn2)C[C@H]1c1ccc(F)cc1F` [Example 33], the EC50 in series [1] worked out at 0.61 µM. The same measure, in the same setting: then `CC[C@H]1CN([C@@H](Cc2ccc3ccccc3c2)C(=O)O)CCN1C(=O)[C@@H]1CN(C(C)=O)C[C@H]1c1ccc(F)cc1F` [Example 50], with 0.064 µM; and `CC(C)(C)N1C[C@@H](C(=O)N2CCN([C@@H](Cc3ccc4c(c3)CCC4)C(=O)O)C[C@@H]2CC2CC2)[C@H](c2ccc(F)cc2F)C1` [Example 36], with 0.0019 µM.

On to `C[C@H]1CN([C@@H](CC2CCCCC2)C(=O)O)CCN1C(=O)[C@@H]1CN(C(C)(C)C)C[C@H]1c1ccc(Cl)cc1F` [Example 57], for which the EC50 amounted to 0.12 µM in series [1], 1.9 µM in series [2] and 2.4 µM in series [3]. The compound `COc1ccc(C2CN(C(C)(C)C)CC2C(=O)N2CCN([C@@H](Cc3ccc4c(c3)CCC4)C(=O)O)C[C@@H]2C)cc1` (stereo partly drawn) [Example 45] gave a 50% effective concentration (EC50) in series [1] of 1.1 µM. In the case of `C[C@H]1CN([C@@H](Cc2ccc3c(c2)CCC3)C(=O)O)CCN1C(=O)C1CN(C(C)(C)C)CC1c1ccc(C#N)cc1F` (stereo partly drawn) [Example 47], the EC50 in series [1] was 0.062 µM; in series [2] it was > 30 µM; in series [3] it was 11 µM. Regarding `C[C@H]1CN([C@@H](Cc2ccc3c(c2)CCC3)C(=O)O)CCN1C(=O)[C@@H]1CN(C2(C)CC2)C[C@H]1c1ccc(Cl)cc1F` [Example 68], in series [1], the EC50 was determined as 0.53 µM.

Turning to `C[C@@H]1CN(C(=O)[C@@H]2CN(C(C)(C)C)C[C@H]2c2ccc(F)cc2F)CCN1C(Cc1ccc(Cl)c(Cl)c1)C(=O)O` (stereo partly drawn) [Example 16], the EC50 in series [1] was 4.9 µM. On the same count and under the same terms, then `Cc1ccc(C[C@@H](C(=O)O)N2CCN(C(=O)C3CN(C4(C)CCOCC4)CC3c3ccc(F)cc3F)[C@@H](C)C2)c(F)c1` (stereo partly drawn) [Example 84], with 0.018 µM.

The compound `COC[C@H]1CN([C@@H](Cc2ccc3c(c2)CCC3)C(=O)O)CCN1C(=O)[C@@H]1CN(c2ccc(F)cc2)C[C@H]1c1ccc(F)cc1F` [Example 27] had an EC50 in series [1] of 1 µM.

For the compound `COc1ccc(C[C@@H](C(=O)O)N2CCN(C(=O)[C@@H]3CN(C(C)(C)C)C[C@H]3c3ccc(Cl)cc3F)[C@@H](C)C2)c(F)c1` [Example 69], the EC50 in series [1] was determined as 0.0051 µM; in series [2], 0.72 µM; in series [3], 2.9 µM. In series [1], `C[C@H]1CN([C@@H](Cc2ccc3c(c2)CCC3)C(=O)O)CCN1C(=O)[C@@H]1CN(C(=O)C2CC2)C[C@H]1c1ccc(F)cc1F` [Example 35] came in with a 50% effective concentration (EC50) of 0.14 µM. The same measure, in the same setting: the figure for `C[C@H]1CN([C@@H](Cc2ccc(C#N)cc2)C(=O)O)CCN1C(=O)[C@@H]1CN(C(C)(C)C)C[C@H]1c1ccc(F)cc1F` [Example 21] is 1.7 µM; for `C[C@@H]1CN(C(=O)[C@@H]2CN(C(C)(C)C)C[C@H]2c2ccc(F)cc2F)CCN1C(Cc1ccc(Cl)c(Cl)c1)C(=O)O` (stereo partly drawn) [Example 15] it is 0.49 µM.
